Several values for one entry are separate records, joined by “and”; a condition that tells them apart may be missing. Identical values can stand only once.
Experiments:
Listeria = assay: Further tests: peracetic acid sprayed over the frankfurters; format: cell-based, Listeria monocytogenes; conditions: 2000 ppm sprayed over the frankfurters for 30 seconds to one minute
Salmonella spp. = format: cell-based; conditions: 35 °C, 24 hrs
Procedure: (§1) Each strain was subcultured on tryptic soy agar (TSA, DIFCO, Detroit, Mich.) slants and stored at 4° C. Strains were individually transferred into 100 mL of sterile 2× BHI (DIFCO, Detroit, Mich.) and incubated at 35° C. for 24 hr. to reach ca. 10^9 colony forming units/mL (CFU/mL). Then, 25 mL of each strain of E. coli was transferred into a sterile bottle (mixture X), and 25 mL of each strain of each strain of Salmonella spp. was transferred into a sterile bottle (mixture Y). Mixtures X and Y were maintained separately throughout the test.
(§2) Serial dilutions were made using Butterfields' Phosphate Buffer (BPB, Sigma, St. Louis, Mo.) in 1 mL aliquots prior to inoculation. BPB was prepared as a stock solution by adding 34 g Of KH2PO4 to 500 mL of distilled water. The pH was adjusted to 7.2, and the solution was brought to a volume of 1 L. The BPB stock was autoclaved for 20 min. at 121° C. and 15 lbs. of pressure. […] For glacial acetic acid (U.S.P.-F.C.C., J. T. Baker, Phillipsburg, N.J.), starting concentrations and serial dilutions were 50%, 25%, 12.5%, 6.25%, 3.12%, 1.56%, 0.78%, 0.39%, and a control (no treatment, buffer and culture). […] For peracetic acid 35.0% (STERIS 20™, STERIS Corporation, Mentor, Ohio), starting concentrations and serial dilutions were 17.5%, 8.75%, 4.38%, 2.19%, 1.09%, 0.55%, 0.30%, 0.14%, 0.07%, 0.03%, and a control. For liquid smoke (Hickory Specialties, Brentwood, Tenn.) starting concentrations and serial dilutions were 50%, 25%, 12.5%, 6.25%, 3.12%, 1.56%, 0.78%, 0.39%, and a control. Dilutions were prepared with deionized water.
(§3) The test tubes were incubated at 35° C. for 24 hrs. and turbidity was evaluated using McFarland equivalence standards, to study the bacteriostatic properties of the diluted solutions. In addition, each dilution was plated to evaluate the bactericidal properties of, the diluted solutions. Using a 1 μL sterile loop, each concentration and control for either microorganism mixture was streaked on plate count agar (PCA, DIFCO, Detroit, Mich.). A selective agar was also used for each mixture, eosine methylene blue agar (EMB, DIFCO, Detroit, Mich.) for E. coli and xylose lysine decarboxylase agar (XLD, DIFCO, Detroit,Mich.) for Salmonella spp. All plates were incubated for 24 hrs. at 35° C. and were inspected for growth or no growth.

E. coli = format: cell-based; conditions: E. coli; 35 °C, 24 hrs
Procedure: as §1, §2, §3

[1] = tested on: Listeria monocytogenes ATCC. 43256; assay: D-values for Listeria monocytogenes in peracetic acid solutions (suspension test); format: cell-based
Procedure: Peracetic acid solutions of 500, 1000, and 2000 mg/L (ppm) were prepared as for Example 1, using deionized water. To 100 mL samples of the solutions, 1.7×10^6 Listeria monocytogenes ATCC. 43256 per mL were added and mixed. The samples were maintained at a preselected temperature ([…], ˜15° C., or ˜22° C.). At 10, 20, 30, 40, and 50 seconds contact time, 1 mL was removed, neutralized, and the Listeria monocytogenes organisms remaining were determined by plating on TSA and incubation. […] D-values (time required to kill one log of the test microorganism—in this case, a reduction in microorganisms from 1.7×10^6 initially to 1.7×10^5) were determined, as shown in TABLE 4. D-values below the detection limit of the test are shown as <2 seconds.

Listeria species = assay: Dip treatment of inoculated frankfurters, qualitative (enrichment) procedure with TECRA Listeria ELISA; format: cell-based, Listeria monocytogenes; set-up: key: POS: Positive indicates that at least one colony grew during the test; NEG: Negative indicated that no colonies grew
Procedure: Following air drying, one frank per treatment was placed in a sterile Stomacher bag and analyzed quantitatively for residual L. monocytogenes populations. The remaining two franks were retained in sterile Stomacher bags and used for qualitative analysis, if necessary (in the event no surviving cells were detected using quantitative procedures).
The plating techniques used were capable of detection down to 5 cfu/ml (1 colony/0.2 ml) for the spiral plating method and 0.5 cfu/ml for the spread plating method (1 colony/2 ml). In the event that no surviving L. monocytogenes cells were observed using direct plating procedures, two franks per treatment were evaluated using qualitative (enrichment) procedures. A 10 mL aliquot of the retained homogenate was placed added to 90 mL of UVM broth to achieve a 1:10 dilution. These samples were shaken by hand for 1 minute and incubated at 30° C. for 24 h. Following this primary enrichment, 0.1 mL was transferred to 10 mL of Fraser broth and incubated at 30° C. for 24 h. This secondary enrichment was then used to perform an ELISA screening procedure (TECRA Listeria species assay). Results of this qualitative analysis were used to indicate whether the sample was “positive” or “negative” for the presence of Listeria species.
The target inoculation level before treatment was 1,000 CFU/frank. It can be seen that a 2 second treatment is sufficient to remove most, but not all Listeria from the franks. A 10 second treatment reduces the Listeria count below the detection limit of the quantitative assessment procedures, although a few colonies were detected in the qualitative procedure. […] Therefore, the true population of any samples with a population of <90 CFU/frank could not be specifically determined.

microorganism = assay: Contacting the surfaces of the food product with peracetic acid solution; format: cell-based; conditions: 1,000 ppm peracetic acid solution for 12 seconds at 8 °C
Description: The decontaminant solution preferably contains from about 500 to about 4,000 ppm of peracetic acid. The optimal concentration depends an the length of time to which the food products are exposed to the decontaminant solution and on the temperature of the decontaminant solution. […] For ensuring complete elimination of resistant microorganisms, such as Listeria, longer times and/or higher peracetic acid concentrations are preferred. Preferred peracetic acid concentrations are from about 1000 to about 2,000 ppm for contact times of 30 seconds to 1 minute to ensure complete kill of Listeria and other undesirable microorganisms at temperatures of from about 8-20° C. Microbiological analysis procedures are carried out periodically on samples of the treated frankfurters to ensure that the conditions used are maintaining a 100% kill of Listeria or other selected microorganisms.

## CC(=O)OO [peracetic acid]
Listeria
  kill level: complete kill
Salmonella spp.
  MIC (%): 0.137% and 0.14%
E. coli
  MIC (%): 0.137% and 0.14%
[1]; 500 mg/L, 8.3-8.5 °C, pH 3.7-3.7
  D-value: 2 s
[1]; 500 mg/L, 14.7-15.0 °C, pH 3.4-3.6
  D-value: <2 s
[1]; 500 mg/L, 22.7-22.8 °C, pH 3.4-3.6
  D-value: <2 s
[1]; 1000 mg/L, 8.1-8.1 °C, pH 3.2-3.4
  D-value: <2 s
[1]; 1000 mg/L, 15.0-15.2 °C, pH 3.2-3.4
  D-value: <2 s
[1]; 2000 mg/L, 8.1-8.4 °C, pH 3.0-3.1
  D-value: <2 s
[1]; 2000 mg/L, temperature range printed 3.0-3.1 °C, pH 3.0-3.1
  D-value: <2 s
[1]; 500, 1000, 2000 mg/L, 10-50 seconds contact, except the sample at 500 mg/L, ~8 °C, 10 seconds
  Listeria monocytogenes organisms remaining: destroyed in all cases
Listeria species; PAA 100 ppm (actual 114 ppm), 2 sec exposure, 2 sec rinse
  POS/NEG (qualitative analysis after treatment): POS
Listeria species; PAA 100 ppm (actual 114 ppm), 10 sec exposure, 10 sec rinse
  POS/NEG (qualitative analysis after treatment): POS
Listeria species; PAA 500 ppm (actual 572 ppm), 2 sec exposure, 2 sec rinse
  POS/NEG (qualitative analysis after treatment): POS
Listeria species; PAA 500 ppm (actual 572 ppm), 10 sec exposure, 10 sec rinse
  POS/NEG (qualitative analysis after treatment): POS and NEG
Listeria species; PAA 1000 ppm (actual 1146 ppm), 2 sec exposure, 2 sec rinse
  POS/NEG (qualitative analysis after treatment): NEG and POS
Listeria species; PAA 1000 ppm (actual 1146 ppm), 10 sec exposure, 10 sec rinse
  POS/NEG (qualitative analysis after treatment): NEG and POS
microorganism
  reduction in the number of microorganism: six log reduction

Source: US6767569B1, “Surface decontamination of cooked sausage and processed meat and poultry products” (priority 1999, dated 2004)
